Laboratory results taken from patent US5441968A, “Therapeutically active fluoro substituted benzimidazoles” (priority 1993, dated 1995).

Tests used:
[1] = Chemical stability in aqueous buffer solution at different pH values; assay type: physicochemical; conditions: for Chemical stability at pH2 t 10%: pH 2, 37° C., time after which 10% has decomposed
Experimental: The chemical stability of the compounds of the invention has been followed kinetically at low concentration at 37° C. in aqueous buffer solution at different pH values. The results in Table 3 show the half life (t 1/2) at pH 7, that is the time period after which half the amount of the original compound remains unchanged, and t10% at pH 2, that is the time period after which 10% of the original compound has decomposed.

[2] = test system: gastric acid secretion; test: Inhibition of gastric acid secretion in the conscious dog; assay type: in vivo, dog (Harrier); conditions: for Inhibition of acid secretion: id
Experimental: The potency for inhibition of acid secretion is measured in the male rat and the dog, both intravenously and intraduodenally. When it comes to relevance of the animal test data for potency of a given compound in man for the present type of compounds, it is believed that potency in man will correspond to a level somewhere between what is measured in the male rat and what is measured in the dog.
Inhibition of Gastric Acid Secretion and Bioavailability in the Conscious Dog
Harrier dogs of either sex were used. They were equipped with a duodenal fistula for the administration of test compounds or vehicle and a cannulated ventricular fistula for the collection of gastric secretions.
Before secretory tests the animals were fasted for about 18 h but water was freely allowed. Gastric acid secretion was stimulated by a 4 h infusion of histamine dihydrochloride (12 ml/h) at a dose producing about 80% of the individual maximal secretory response, and gastric juice collected in consecutive 30-min fractions. Test substance or vehicle was given id or iv 1 h after starting the histamine infusion, in a volume of 0.5 ml/kg body weight. The acidity of the gastric juice samples were determined by titration to pH 7.0, and the acid output calculated. The acid output in the collection periods after administration of test substance or vehicle were expressed as fractional responses, setting the acid output in the fraction preceding administration to 1.0. Percentage inhibition was calculated from fractional responses elicited by test compound and vehicle. ED50 values were obtained by graphical interpolation on log dose-response curves, or estimated from single-dose experiments under the assumption of the same slope of the dose-response curve for all test compounds. All results reported are based on acid output 2 h after dosing.

Row | Structure (SMILES) | Chemical stability at pH2 t 10% [1] | ED50 ([2]; Canis lupus familiaris, dog, id administration, histamine-stimulated, acid output 2 h after dosing) | Inhibition of acid secretion ([2]; Dog 1, 1.5 μmol/kg) | Inhibition of acid secretion ([2]; Dog 2, 1.5 μmol/kg) | half-life ([1]; pH 7, 37° C., read-out: Chemical stability at pH 7 t1/2 (converted))
1 | COc1ccnc(C[S+]([O-])c2nc3c(F)cccc3n2COC(=O)OCc2ccccc2)c1 (stereo not drawn) [Example 1, 4-fluoro-2-[[(4-methoxy-2-pyridinyl)methyl]sulfinyl]-1H-benzimidazole-1-ylmethyl benzyl carbonate] | 2 h |  |  |  | 
2 | CCOC(=O)OCn1c([S+]([O-])Cc2cc(OC)ccn2)nc2c(F)cccc21 (stereo not drawn) [Example 2, 4-fluoro-2-[[(4-methoxy-2-pyridinyl)methyl]sulfinyl] -1H-benzimidazole-1-ylmethyl ethyl carbonate] | 3 h | 1.3 µmol/kg | 55% | no effect | 16 h
